According to BindingDB's records for doi:10.1016/j.bioorg.2013.06.006 (North-West University, Private Bag X6001, Potchefstroom …, 2013):

biological target: Adenosine receptor A2a (Rattus norvegicus, UniProt P30543)
Sequence (P30543 whole entry): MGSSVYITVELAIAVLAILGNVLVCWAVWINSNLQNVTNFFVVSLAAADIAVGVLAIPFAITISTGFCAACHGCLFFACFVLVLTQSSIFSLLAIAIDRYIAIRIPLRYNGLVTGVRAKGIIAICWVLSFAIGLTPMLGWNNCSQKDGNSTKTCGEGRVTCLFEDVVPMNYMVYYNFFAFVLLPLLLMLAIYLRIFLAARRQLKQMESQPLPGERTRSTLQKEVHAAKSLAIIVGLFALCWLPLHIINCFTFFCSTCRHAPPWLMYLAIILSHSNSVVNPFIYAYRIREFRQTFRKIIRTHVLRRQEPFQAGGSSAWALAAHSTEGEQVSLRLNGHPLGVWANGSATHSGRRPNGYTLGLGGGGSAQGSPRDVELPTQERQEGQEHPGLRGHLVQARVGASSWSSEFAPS

Ki [nM]	SMILES
125	Cn1c(=O)c2c(nc(/C=C/c3cccc(C(F)(F)F)c3)n2C)n(C)c1=O
169	Cn1c(=O)c2c(nc(/C=C/c3ccc(Cl)cc3)n2C)n(C)c1=O
428	CCn1c(=O)c2c(nc(/C=C/c3ccc(Cl)c(Cl)c3)n2CC)n(CC)c1=O [(E)-8-(3,4-Dichlorostyryl)-1,3,7-triethylxanthine (7c)]
32.9	CCn1c(/C=C/c2ccc(Cl)c(Cl)c2)nc2c1c(=O)n(C)c(=O)n2C [(E)-8-(3,4-Dichlorostyryl)-1,3-dimethyl-7-ethylxanthine (5c)]
44.8	Cn1c(=O)c2c(nc(/C=C/c3ccc(Cl)c(Cl)c3)n2C)n(C)c1=O [(E)-8-(3,4-Dichlorostyryl)caffeine (4b)]
28.4	Cn1c(=O)c2c(nc(/C=C/c3cccc(Br)c3)n2C)n(C)c1=O [(E)-8-(3-Bromostyryl)-1,3,7-trimethylxanthine (4c)]
58.2	CCn1c(/C=C/c2cccc(Br)c2)nc2c1c(=O)n(C)c(=O)n2C [(E)-8-(3-Bromostyryl)-1,3-dimethyl-7-ethylxanthine (5d)]
24.3	CCn1c(=O)c2c(nc(/C=C/c3cccc(Cl)c3)n2C)n(CC)c1=O [(E)-8-(3-Chlorostyryl)-1,3-diethyl-7-methylxanthine (6a)]
421	CCn1c(/C=C/c2cccc(Cl)c2)nc2c1c(=O)n(C)c(=O)n2C [(E)-8-(3-Chlorostyryl)-1,3-dimethyl-7-ethylxanthine (5a)]
127	Cn1c(=O)c2c(nc(/C=C/c3ccc(Br)cc3)n2C)n(C)c1=O [(E)-8-(4-Bromostyryl)-1,3,7-trimethylxanthine (4d)]
546	CCn1c(/C=C/c2ccc(Br)cc2)nc2c1c(=O)n(C)c(=O)n2C [(E)-8-(4-Bromostyryl)-1,3-dimethyl-7-ethylxanthine (5e)]
95.3	CCn1c(/C=C/c2ccc(Cl)cc2)nc2c1c(=O)n(C)c(=O)n2C [(E)-8-(4-Chlorostyryl)-1,3-dimethyl-7-ethylxanthine (5b)]
93.8	CCn1c(/C=C/c2cccc(C(F)(F)F)c2)nc2c1c(=O)n(C)c(=O)n2C [(E)-8-[3-(Trifluoromethyl)styryl]-1,3-dimethyl-7-ethylxanthine (5f)]

The next lines start with the compound.

SMILES	Ki [nM]
Cn1c(=O)c2c(nc(COc3ccccc3)n2C)n(C)c1=O	137
CCn1c(=O)c2c(nc(CCCc3ccccc3)n2CC)n(CC)c1=O [8-(3-Phenylpropyl)-1,3,7-triethylxanthine (9d)]	> 1000
Cn1c(=O)c2c(nc(CCCc3ccccc3)n2C)n(C)c1=O [8-(3-Phenylpropyl)-1,3,7-trimethylxanthine (9a)]	> 1000
CCn1c(=O)c2c(nc(CCCc3ccccc3)n2C)n(CC)c1=O [8-(3-Phenylpropyl)-1,3-diethyl-7-methylxanthine (9c)]	> 1000
CCn1c(CCCc2ccccc2)nc2c1c(=O)n(C)c(=O)n2C [8-(3-Phenylpropyl)-1,3-dimethyl-7-ethylxanthine (9b)]	> 1000
CCn1c(=O)c2c(nc(COc3ccccc3)n2CC)n(CC)c1=O [8-Phenoxymethyl-1,3,7-triethylxanthine (8d)]	> 1000
CCn1c(=O)c2c(nc(COc3ccccc3)n2C)n(CC)c1=O [8-Phenoxymethyl-1,3-diethyl-7-methylxanthine (8c)]	> 1000
CCn1c(COc2ccccc2)nc2c1c(=O)n(C)c(=O)n2C [8-Phenoxymethyl-1,3-dimethyl-7-ethylxantine (8b)]	> 1000
CCn1c(=O)c2c(nc(/C=C/c3cccc(Br)c3)n2CC)n(CC)c1=O [(E)-8-(3-Bromostyryl)-1,3,7-triethylxanthine (7d)]	161
CCn1c(=O)c2c(nc(/C=C/c3cccc(Br)c3)n2C)n(CC)c1=O [(E)-8-(3-Bromostyryl)-1,3-diethyl-7-methylxanthine (6d)]	17.2
CCn1c(=O)c2c(nc(/C=C/c3cccc(Cl)c3)n2CC)n(CC)c1=O [(E)-8-(3-Chlorostyryl)-1,3,7-triethylxanthine (7a)]	> 1000
CCn1c(=O)c2c(nc(/C=C/c3ccc(Br)cc3)n2CC)n(CC)c1=O [(E)-8-(4-Bromostyryl)-1,3,7-triethylxanthine (7e)]	83
CCn1c(=O)c2c(nc(/C=C/c3ccc(Br)cc3)n2C)n(CC)c1=O [(E)-8-(4-Bromostyryl)-1,3-diethyl-7-methylxanthine (6e)]	28.9
CCn1c(=O)c2c(nc(/C=C/c3ccc(Cl)cc3)n2CC)n(CC)c1=O [(E)-8-(4-Chlorostyryl)-1,3,7-triethylxanthine (7b)]	> 1000
CCn1c(=O)c2c(nc(/C=C/c3cccc(C(F)(F)F)c3)n2CC)n(CC)c1=O [(E)-8-[3-(Trifluoromethyl)styryl]-1,3,7-triethylxanthine (7f)]	> 1000
CCn1c(=O)c2c(nc(/C=C/c3cccc(C(F)(F)F)c3)n2C)n(CC)c1=O [(E)-8-[3-(Trifluoromethyl)styryl]-1,3-diethyl-7-methylxanthine (6f)]	11.9
